In BindingDB's records for doi:10.1016/s0960-894x(98)00672-6 (University of Maryland, 1999) one finds Ki data, which are given here for one molecule.

In this test the target is Guanine deaminase (Oryctolagus cuniculus). Put plainly: Compound was tested for its inhibitory effect on rabbit liver guanase.

Each structure is given as a SMILES string. pKi: −log10 of the molar value.

`O=c1cnc2c(ncn2Cc2ccccc2)c(=O)[nH]1` [3-Benzyl-3H-imidazo[4,5-e][1,4]diazepine-6,8-dione]: the pKi (usually −log10 of the Ki, conventionally taken in molar units) was 3.64.
